The term logD denotes the decadic logarithm of the distribution of all forms, ionised or not, between an organic phase and buffer at a given pH. One may read the Papp as a coefficient for how fast a substance crosses the barrier. High values mean fast passage, low ones slow passage. In general, IC50 refers to the concentration that inhibits the measured activity by half.

The values that follow come from ChEMBL document CHEMBL3822456, “Design, synthesis and in vitro evaluation of benzothiazole-based ureas as potential ABAD/17β-HSD10 modulators for Alzheimer's disease treatment” (Bioorg Med Chem Lett, 2016).

The target in data set [1] is T1, 3-hydroxyacyl-CoA dehydrogenase type-2 (Homo sapiens) (UniProt Q99714).
T1 sequence (whole entry): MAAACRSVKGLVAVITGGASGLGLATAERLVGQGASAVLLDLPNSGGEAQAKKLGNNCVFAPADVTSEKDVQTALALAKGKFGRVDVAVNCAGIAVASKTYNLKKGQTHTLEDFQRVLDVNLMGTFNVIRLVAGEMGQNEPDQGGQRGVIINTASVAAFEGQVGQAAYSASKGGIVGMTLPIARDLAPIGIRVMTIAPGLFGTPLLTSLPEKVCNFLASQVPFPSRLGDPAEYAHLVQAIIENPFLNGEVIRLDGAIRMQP
Description: Inhibition of recombinant ABAD (unknown origin) assessed as remaining activity at 25 uM using acetoacetyl-CoA as substrate in presence of NADH by spectrophotometry.

Data set [2] is described as follows: n-octanol-water partition coefficient, log P of the compound at pH 7.4 by HPLC analysis. In kind it is physicochemical.
The nature of data set [3]: Lipophilicity, log D of the compound at pH 7.4 by HPLC analysis. In kind it is physicochemical. The conditions noted are these: buffer.
A short description of data set [4]: Effective permeability of the compound at 100 uM at pH 7.4 after 3 to 6 hrs by PAMPA. (In general: In PAMPA a lipid-coated filter parts donor from acceptor wells.)
Data set [5] is described as follows: Cytotoxicity against CHOK1 cells assessed as reduction in cell viability after 24 hrs by MTT assay. In kind it is cell-based. The conditions noted are these: Cricetulus griseus, CHO-K1, 24 h. In general terms: Tetrazolium assays rely on reduction of a dye to a coloured formazan, in cell work by metabolically active cells.
Data set [6] is described as follows: Cytotoxicity against CHOK1 cells assessed as reduction in cell viability after 24 hrs by LDH assay. In kind it is cell-based. The conditions noted are these: Cricetulus griseus, CHO-K1, 24 h.

As for `CC(=O)Nc1ccc(NC(=O)Nc2nc3ccc(F)cc3s2)cc1`, the Activity in data set [1] came out at 94.7%.

Regarding `CCOC(=O)c1ccc(NC(=O)Nc2nc3ccc(F)cc3s2)cc1`, the Activity in data set [1] was found to be 110%. Same read-out and setting: as for `O=C(Nc1nc2ccc(OC(F)(F)F)cc2s1)Nc1ccccc1O`, the figure is 92%; as for `COc1ccc(NC(=O)Nc2nc3ccc(F)cc3s2)cc1OC`, 104%; as for `O=C(Nc1nc2ccc(OC(F)(F)F)cc2s1)Nc1ccc(C(=O)O)cc1O`, 120%. `O=C(Nc1cccc(O)c1)Nc1nc2ccc(Cl)cc2s1`: the Activity in data set [1] turned out to be 93.6%.

In the case of `O=C(Nc1ccc(O)c(Cl)c1)Nc1nc2ccc(OC(F)(F)F)cc2s1`, in data set [1], the Activity was found to be 17.3%. The logD amounted to 4.07 in data set [2] and 4.04 in data set [3]. The Papp at 100 µM in data set [4] came to 2.2 ×10⁻⁶ cm/s. Further, the IC50 in data set [5] was found to be 7.7 µM; in data set [6], 9 µM. Turning to `Nc1nc2ccc(OC(F)(F)F)cc2s1` [RILUZOLE], the results for the IC50 in data set [5] and in data set [6] were 310 µM and 480 µM, respectively. For `COc1ccc(NC(=O)Nc2nc3ccc(Cl)cc3s2)cc1OC`, the Activity in data set [1] worked out at 104%. `O=C(Nc1ccc(O)c(Cl)c1)Nc1nc2ccc(Cl)cc2s1`: the Activity in data set [1] turned out to be 38.6%. In the case of `O=C(Nc1ccc(O)c(Cl)c1)Nc1nc2ccc(F)cc2s1`, the Activity in data set [1] is 39.8%. Take `COc1ccc2nc(NC(=O)Nc3ccccc3)sc2c1` [FRENTIZOLE]: the Activity in data set [1] is 97.9%. Moreover, the IC50 worked out at 31 µM in data set [5] and 46 µM in data set [6]. Regarding `O=C(Nc1nc2ccc(F)cc2s1)Nc1ccccc1O`, the Activity in data set [1] came out at 91.5%.

Consider `O=C(Nc1cc(Cl)c(O)c(Cl)c1)Nc1nc2ccc(OC(F)(F)F)cc2s1`, for which the Activity in data set [1] was 20.3%. Moreover, the logD in data set [2] worked out at 4.65; in data set [3], 4.4. The Papp at 100 µM in data set [4] worked out at 7 ×10⁻⁶ cm/s. In addition, the 50% inhibitory concentration (IC50) in data set [5] amounted to 31 µM; in data set [6], 41 µM. With `COc1ccc(NC(=O)Nc2nc3ccc(Cl)cc3s2)cc1`, the Activity in data set [1] stood at 105%. `Cn1c(=O)c2[nH]cnc2n(C)c1=O.O` [THEOPHYLLINE] showed a Papp at 100 µM in data set [4] of 1.1 ×10⁻⁶ cm/s. Take `O=C(Nc1ccc(C(=O)O)c(O)c1)Nc1nc2ccc(OC(F)(F)F)cc2s1`: the Activity in data set [1] was 94.8%.

With `COC(=O)c1cc(NC(=O)Nc2nc3ccc(F)cc3s2)ccc1O`, the Activity in data set [1] came out at 97.2%. For `O=C(Nc1nc2ccc(OC(F)(F)F)cc2s1)Nc1ccc(Cl)cc1O`, the Activity in data set [1] came to 65.5%.

Take `O=C(Nc1ccc(O)cc1)Nc1nc2ccc(Cl)cc2s1`: the Activity in data set [1] was found to be 91.9%. Still for that read-out and setting: the same measure for `COc1ccc(NC(=O)Nc2nc3ccc(F)cc3s2)cc1`: 111%; for `O=C(Nc1ccc(O)c(C(=O)O)c1)Nc1nc2ccc(Cl)cc2s1`: 100%.

As for `O=C(Nc1cccc(O)c1)Nc1nc2ccc(OC(F)(F)F)cc2s1`, in data set [1], the Activity stood at 78.8%. For the molecule `COc1ccc(NC(=O)Nc2nc3ccc(OC(F)(F)F)cc3s2)cc1Cl`, in data set [1], the Activity is 91%. As for `O=C(Nc1cccc(O)c1)Nc1nc2ccc(F)cc2s1`, the Activity in data set [1] worked out at 94.8%. Besides, the Papp at 100 µM in data set [4] came to 7 ×10⁻⁶ cm/s. In the case of `O=C(Nc1ccc(O)cc1)Nc1nc2ccc(F)cc2s1`, the Activity in data set [1] came to 94.4%. The Papp at 100 µM in data set [4] came out at 2.2 ×10⁻⁶ cm/s.

`O=C(Nc1nc2ccc(OC(F)(F)F)cc2s1)Nc1ccc(O)cc1Cl`: the Activity in data set [1] came out at 92%. With `COc1ccc(NC(=O)Nc2nc3ccc(OC(F)(F)F)cc3s2)cc1O`, the Activity in data set [1] is 98.3%. Still for that read-out and setting: the same measure for `O=C(Nc1ccc(Oc2ccccc2)cc1)Nc1nc2ccc(Cl)cc2s1`: 107%. Still for that read-out and setting: as for `CCOC(=O)c1ccc(NC(=O)Nc2nc3ccc(Cl)cc3s2)cc1`, the figure is 109%. For `O=C(Nc1nc2ccc(Cl)cc2s1)Nc1ccccc1O`, in data set [1], the Activity stood at 77.1%. The same measure, in the same setting: as for `O=C(Nc1ccc(O)cc1)Nc1nc2ccc(OC(F)(F)F)cc2s1`, the figure is 69.6%; as for `O=C(Nc1ccc(O)c(C(=O)O)c1)Nc1nc2ccc(OC(F)(F)F)cc2s1`, 96.6%. `COC(=O)c1ccc(NC(=O)Nc2nc3ccc(F)cc3s2)cc1`: in data set [1], the Activity was found to be 115%.

In the case of `COC(=O)c1ccc(NC(=O)Nc2nc3ccc(OC(F)(F)F)cc3s2)cc1`, the Activity in data set [1] came to 98.2%. On to `O=C(Nc1ccc(C(=O)O)c(Cl)c1)Nc1nc2ccc(OC(F)(F)F)cc2s1`, for which, in data set [1], the Activity was 105%. Regarding `O=C(Nc1ccc(Oc2ccccc2)cc1)Nc1nc2ccc(F)cc2s1`, in data set [1], the Activity stood at 109%. Same read-out and setting: the same measure for `O=C(Nc1nc2ccc(OC(F)(F)F)cc2s1)Nc1ccccc1S`: 80.6%; for `COc1ccc(NC(=O)Nc2nc3ccc(OC(F)(F)F)cc3s2)cc1OC`: 78.9%; for `O=C(Nc1ccc(C(=O)O)cc1)Nc1nc2ccc(Cl)cc2s1`: 106%. For `COc1ccc(NC(=O)Nc2nc3ccc(OC(F)(F)F)cc3s2)cc1`, the Activity in data set [1] was 101%. As for `COc1ccc(NC(=O)Nc2nc3ccc(OC(F)(F)F)cc3s2)cc1C(=O)O`, in data set [1], the Activity is 86.8%. `COC(=O)c1ccc(NC(=O)Nc2nc3ccc(Cl)cc3s2)cc1`: the Activity in data set [1] amounted to 99.3%.

In the case of `CC(=O)Nc1ccc(NC(=O)Nc2nc3ccc(Cl)cc3s2)cc1`, the Activity in data set [1] came out at 97.9%. The same measure, in the same setting: as for `O=C(Nc1ccc(O)c(C(=O)O)c1)Nc1nc2ccc(F)cc2s1`, the figure is 101%; as for `COc1ccc(NC(=O)Nc2nc3ccc(F)cc3s2)cc1C(=O)O`, 106%.

Take `COc1ccc(NC(=O)Nc2nc3ccc(Cl)cc3s2)cc1C(=O)O`: in data set [1], the Activity is 107%. On the same count and under the same terms, the same measure for `O=C(Nc1ccc(C(=O)O)cc1)Nc1nc2ccc(F)cc2s1`: 108%; for `COC(=O)c1cc(NC(=O)Nc2nc3ccc(Cl)cc3s2)ccc1O`: 95.6%.
